Reference: patent publication US6773702B2, “Use of combretastatin A4 and its prodrugs as an immune enhancing therapy” (OXiGENE, Inc., priority 2000, dated 2004)
Where “and” joins values, the source holds several entries; their conditions need not be identical. Equal entries are not always repeated.

Columns and labels:
[1] = test system: spleen cells isolated from BN7005-H1D2 tumor-bearing rats; experiment: In vitro proliferative response of spleen cells after 20 days of in vivo CA4P at 5 or 2 mg/kg (FIG. 2A); set-up: species or system rat; details: 20 days daily treatment, H1D2-WT or IL-18 transfectant stimulator cells
Protocol: FIG. 2A illustrates the in vitro immune proliferative response of spleen cells isolated from BN7005-H1D2 tumor-bearing rats previously treated with a combination of active immunomodulatory gene therapy (IL-18 and IL-12 transfected tumor cells) and CA4P (5 or 2 mg/kg) in vivo. The cells were stimulated with untransfected (H1D2-WT) tumor cells or IL-18 (H1D2-IL18) transfected tumor cells after 20 days of tumor growth.
Results of in vitro studies indicate that the dose of Combretastatin A4 Prodrug that is administered is critical for obtaining a specific immunological effect. […] Proliferation of spleen immune cells was monitored by 3-H-thymidine incorporation (CPM) after 5 days incubation. […] Eight μm cryosections were examined directly in a fluorescence microscope and vessel volume was determined (Springer, MP., Ip, TK., and Blau, HM). Angiogenesis monitored by perfusion with space-filling microbead suspension (Mol. Ther. 1: 82-87, 2000). […]
In a second experiment represented in FIG. 2A, wild type H1D2-WT or IL-18 transfected (H1D2-IL-18) cells were used as immune stimulants to assess the in vitro proliferative response of spleen cells isolated from tumor-bearing rats previously treated in vivo with 2 or 5 mg/kg combretastatin A4 prodrug for 20 days. The spleen cells were cultured in RPMI medium and their growth monitored by the incorporation of tritiated thymidine into DNA. […]

[2] = test system: colon carcinoma H1D2-WT cells; experiment: Intrahepatic growth of colon carcinoma H1D2-WT, tumor volume after 4 weeks (Table 2); type: in vivo, rat
Protocol: Table 2 is a summary of intrahepatic growth of colon carcinoma H1D2-WT cells treated with low dose CA4P alone or in combination with immunomodulatory gene therapy, and with or without additional inhibitor. Tumor growth was initiated by inoculation beneath the liver capsule with 1×10^5 in vitro cultured BN7005-H1D2 wild type cells suspended in 50 μl RPMI medium. Drug administration (CA4P, L-NAME, Indomethacin) was initiated after 7-8 days when the tumor was macroscopically visible. CA4P was given intraperitoneally, 5 days a week. L-NAME was given by gavage twice a week on the day of immunization and the day after. Indomethacin was given by gavage 48 h after vaccination at a dose of 0.33 mg/kg. Immunization was performed by intraperitoneal administration on day 10 and day 17 using BN7005-H1D2 cells transfected with IL-18 or a mixture of IL-18 and IL-12 transfectants (2-3×10^6 viable cells per rat).
Wild-type (BN7005-H1D2) colon cancer cells (1×10^5 cells) were inoculated intrahepatically and CA4P drug treatment (2 and 5 mg/kg) began daily when the tumors were macroscopically visible. On day 10 and 17, vaccinations were administered intraperitoneally using […] cells transfected with IL-18 transfected cells or mixtures of IL-18 and IL-12 transfected cells (2-3×10^6 viable cells per rat). L-NAME and Indomethacin were also administered by gavage 48 h after vaccination at a dose of 0.33 mg/kg.

[3] = test system: BN7005-H1D2 colon cancer cells; experiment: Comparison of CA4 and CA4P on BN7005-H1D2 tumor growth, alone or with vaccination (FIG. 5); type: in vivo, rat
Protocol: FIGS. 5A AND 5B illustrate a comparison of the therapeutic effect of Combretastatin A4 and Combretastatin A4 Prodrug (2 mg/kg) on tumor growth (BN7005-H1D2) in vivo as a sole therapy or in combination with therapeutic vaccination (IL-18 tumor transfectants). Results are represented as mean tumor volume (FIG. 5A) or as median tumor volume (FIG. 5B) 31 days after tumor initiation.
A comparison was also made of relative effect of CA4 and CA4P administration in vivo with regard to tumor inhibitory effects when used as sole therapy and when combined with immunomodulatory gene therapy. […] A subset of these animals were subjected to regular vaccinations autologous IL-18 and IL-12-transfected tumor cells, respectively.
A comparison has been made of the effect of CA4 and CA4 prodrug with regard to tumor inhibitory effects when used as sole therapy and when combined with immunomodulatory gene therapy. As represented in FIG. 5, wild-type (BN7005-H1D2) colon cancer cells were inoculated intrahepatically and treatment with CA4 and CA4P began on day 7 (2 mg/kg 6 days a week), when the tumors were macroscopically visible. On day 9, 16 and 23, vaccinations occurred using BN7005-H1D2 cells transfected with ILI8 and IL-12, respectively.

[4] = CA4-P 2 mg/kg alone, no L-NAME, no immunization
[5] = CA4-P 2 mg/kg i.p. 5 days a week, no L-NAME, with immunization, phosphate disodium salt
[6] = CA4-P 2 mg/kg, with L-NAME gavage, with immunization
[7] = CA4-P 5 mg/kg, with L-NAME gavage, with immunization, phosphate disodium salt

SMILES: COc1ccc(/C=C\c2cc(OC)c(OC)c(OC)c2)cc1OP(=O)([O-])[O-].[Na+].[Na+] [CA4P, CA4 phosphate disodium salt]
- Proliferative response of spleen cells (3-H-thymidine incorporation) ([1]; CA4P 2 mg/kg): particularly effective in enhancing the anti-tumor immune response
- Proliferative response of spleen cells (3-H-thymidine incorporation) ([1]; CA4P 5 mg/kg): some enhancement of a proliferative response
- Tumor volume after 4 weeks, Mean [2, 4]: 3834 mm^3
- Tumor volume after 4 weeks, Median [2, 4]: 4037 mm^3
- Tumor volume after 4 weeks, Mean [2, 5]: 3918 mm^3 and 5755 mm^3 and 5135 mm^3 and 3698 mm^3
- Tumor volume after 4 weeks, Median [2, 5]: 3780 mm^3 and 6195 mm^3 and 4275 mm^3 and 3393 mm^3
- Tumor volume after 4 weeks, Median ([2]; CA4-P 2 mg/kg, with L-NAME (+Indomethacin 0.33 mg/kg), with immunization, phosphate disodium salt): 2867 mm^3 and 1463 mm^3 and 1962 mm^3
- Tumor volume after 4 weeks, Mean [2, 6]: 5064 mm^3
- Tumor volume after 4 weeks, Median [2, 6]: 4792 mm^3
- Tumor volume after 4 weeks, Mean [2, 7]: 512 mm^3 and 561 mm^3
- Tumor volume after 4 weeks, Median [2, 7]: 426 mm^3 and 367 mm^3
- Tumor inhibitory effect ([3]; 2 mg/kg 6 days a week as sole therapy): no significant effect as sole therapy
- Tumor inhibitory effect ([3]; 2 mg/kg combined with vaccination (IL-18 and IL-12 transfected tumor cells)): significant tumor inhibitory effects
